Key:
[1] = molecular target: T1, Alpha-1A adrenergic receptor (Homo sapiens) (UniProt P35348); test: Inhibition of alpha1A adrenergic receptor at 10 uM
T1 sequence (whole entry): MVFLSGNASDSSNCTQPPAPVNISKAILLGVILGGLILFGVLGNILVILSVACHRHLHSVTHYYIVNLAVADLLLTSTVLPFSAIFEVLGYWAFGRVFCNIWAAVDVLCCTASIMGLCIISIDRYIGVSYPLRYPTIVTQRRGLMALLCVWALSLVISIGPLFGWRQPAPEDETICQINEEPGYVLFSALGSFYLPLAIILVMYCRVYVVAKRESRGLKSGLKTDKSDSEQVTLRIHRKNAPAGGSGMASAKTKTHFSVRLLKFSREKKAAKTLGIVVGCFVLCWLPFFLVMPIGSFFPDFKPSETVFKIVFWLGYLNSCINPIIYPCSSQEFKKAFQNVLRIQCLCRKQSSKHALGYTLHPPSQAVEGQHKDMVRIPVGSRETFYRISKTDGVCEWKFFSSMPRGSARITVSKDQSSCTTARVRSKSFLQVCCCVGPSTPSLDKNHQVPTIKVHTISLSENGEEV

[2] = molecular target: Beta-1 adrenergic receptor (Homo sapiens) (UniProt P08588); test: Inhibition of beta1 adrenergic receptor at 10 uM
[3] = molecular target: D(1A) dopamine receptor (Homo sapiens) (UniProt P21728); test: Inhibition of dopamine D1 receptor at 10 uM
[4] = molecular target: T2, D(4) dopamine receptor (Homo sapiens) (UniProt P21917); test: Inhibition of dopamine D4 receptor at 10 uM
T2 sequence (whole entry): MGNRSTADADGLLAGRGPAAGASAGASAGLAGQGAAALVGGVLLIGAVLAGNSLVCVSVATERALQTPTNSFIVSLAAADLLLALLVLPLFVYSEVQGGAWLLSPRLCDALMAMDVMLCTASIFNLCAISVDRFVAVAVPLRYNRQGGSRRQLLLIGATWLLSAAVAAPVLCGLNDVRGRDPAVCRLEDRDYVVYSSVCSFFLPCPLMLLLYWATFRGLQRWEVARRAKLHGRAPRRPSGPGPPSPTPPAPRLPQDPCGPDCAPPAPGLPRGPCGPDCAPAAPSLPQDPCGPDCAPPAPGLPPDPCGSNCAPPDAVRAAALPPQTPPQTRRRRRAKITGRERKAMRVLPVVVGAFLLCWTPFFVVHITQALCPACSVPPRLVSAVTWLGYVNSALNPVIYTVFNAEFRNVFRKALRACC

[5] = molecular target: T3, 5-hydroxytryptamine receptor 2C (Homo sapiens) (UniProt P28335); test: Inhibition of 5HT2C receptor at 10 uM
T3 sequence (whole entry): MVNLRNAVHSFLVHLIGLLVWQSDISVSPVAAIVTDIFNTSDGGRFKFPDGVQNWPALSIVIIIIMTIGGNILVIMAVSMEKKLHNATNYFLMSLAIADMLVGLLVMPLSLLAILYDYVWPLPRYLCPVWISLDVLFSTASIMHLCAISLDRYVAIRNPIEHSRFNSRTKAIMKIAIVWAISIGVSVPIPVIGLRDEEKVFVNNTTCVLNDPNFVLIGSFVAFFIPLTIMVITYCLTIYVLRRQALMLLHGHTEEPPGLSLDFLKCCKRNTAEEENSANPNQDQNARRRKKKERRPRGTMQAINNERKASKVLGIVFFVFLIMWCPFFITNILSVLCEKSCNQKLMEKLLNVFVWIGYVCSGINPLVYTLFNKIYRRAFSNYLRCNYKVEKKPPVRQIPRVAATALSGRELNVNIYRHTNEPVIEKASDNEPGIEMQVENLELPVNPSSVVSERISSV

[6] = molecular target: T4, 5-hydroxytryptamine receptor 3A (Homo sapiens) (UniProt P46098); test: Inhibition of 5HT3 receptor at 10 uM
T4 sequence (whole entry): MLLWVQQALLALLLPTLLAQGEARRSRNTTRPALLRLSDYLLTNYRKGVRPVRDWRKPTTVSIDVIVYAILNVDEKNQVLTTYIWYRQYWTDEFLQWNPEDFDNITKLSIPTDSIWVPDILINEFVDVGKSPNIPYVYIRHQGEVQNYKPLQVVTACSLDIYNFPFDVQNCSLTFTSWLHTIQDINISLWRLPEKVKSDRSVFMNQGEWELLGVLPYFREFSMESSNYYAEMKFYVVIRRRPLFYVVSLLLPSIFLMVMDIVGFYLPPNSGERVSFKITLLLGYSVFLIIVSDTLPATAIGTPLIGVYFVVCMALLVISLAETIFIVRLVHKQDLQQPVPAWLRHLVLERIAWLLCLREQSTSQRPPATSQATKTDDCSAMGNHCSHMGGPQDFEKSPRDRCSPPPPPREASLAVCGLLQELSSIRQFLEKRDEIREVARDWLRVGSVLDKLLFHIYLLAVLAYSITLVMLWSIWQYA

[7] = molecular target: 5-hydroxytryptamine receptor 5A (Homo sapiens) (UniProt P47898); test: Inhibition of 5HT5A receptor at 10 uM
[8] = molecular target: Mu-type opioid receptor (Homo sapiens) (UniProt P35372); test: Inhibition of mu opioid receptor at 10 uM
[9] = molecular target: T5, Muscarinic acetylcholine receptor M5 (Homo sapiens) (UniProt P08912); test: Inhibition of muscarinic M5 receptor at 10 uM
T5 sequence (whole entry): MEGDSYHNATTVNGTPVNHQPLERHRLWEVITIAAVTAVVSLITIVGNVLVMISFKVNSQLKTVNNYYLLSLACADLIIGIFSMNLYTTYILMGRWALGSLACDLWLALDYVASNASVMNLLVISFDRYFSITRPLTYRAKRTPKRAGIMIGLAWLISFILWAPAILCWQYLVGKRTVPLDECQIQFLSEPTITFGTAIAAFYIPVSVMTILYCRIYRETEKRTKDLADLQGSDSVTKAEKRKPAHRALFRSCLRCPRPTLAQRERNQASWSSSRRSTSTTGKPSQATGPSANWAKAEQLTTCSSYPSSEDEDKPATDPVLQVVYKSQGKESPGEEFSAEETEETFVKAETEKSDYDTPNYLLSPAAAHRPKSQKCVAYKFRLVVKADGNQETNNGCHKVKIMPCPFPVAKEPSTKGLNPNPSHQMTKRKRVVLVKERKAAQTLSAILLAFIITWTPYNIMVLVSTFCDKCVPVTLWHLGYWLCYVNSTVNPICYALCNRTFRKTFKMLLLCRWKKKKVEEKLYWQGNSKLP

Measured: inhibition

Sequence of D(1A) dopamine receptor (Homo sapiens) (P21728 whole entry): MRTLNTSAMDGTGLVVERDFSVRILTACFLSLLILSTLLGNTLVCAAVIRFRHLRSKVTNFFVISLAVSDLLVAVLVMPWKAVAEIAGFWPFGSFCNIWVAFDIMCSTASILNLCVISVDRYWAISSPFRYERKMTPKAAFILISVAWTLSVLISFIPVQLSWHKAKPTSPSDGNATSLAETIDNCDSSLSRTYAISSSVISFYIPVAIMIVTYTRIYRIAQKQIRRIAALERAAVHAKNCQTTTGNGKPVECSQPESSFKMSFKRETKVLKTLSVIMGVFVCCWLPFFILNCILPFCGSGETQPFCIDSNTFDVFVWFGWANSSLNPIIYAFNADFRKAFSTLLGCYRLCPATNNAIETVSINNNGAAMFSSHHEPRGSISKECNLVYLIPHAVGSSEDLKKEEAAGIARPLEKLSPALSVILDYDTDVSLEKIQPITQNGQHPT
Sequence of Mu-type opioid receptor (Homo sapiens) (P35372 whole entry): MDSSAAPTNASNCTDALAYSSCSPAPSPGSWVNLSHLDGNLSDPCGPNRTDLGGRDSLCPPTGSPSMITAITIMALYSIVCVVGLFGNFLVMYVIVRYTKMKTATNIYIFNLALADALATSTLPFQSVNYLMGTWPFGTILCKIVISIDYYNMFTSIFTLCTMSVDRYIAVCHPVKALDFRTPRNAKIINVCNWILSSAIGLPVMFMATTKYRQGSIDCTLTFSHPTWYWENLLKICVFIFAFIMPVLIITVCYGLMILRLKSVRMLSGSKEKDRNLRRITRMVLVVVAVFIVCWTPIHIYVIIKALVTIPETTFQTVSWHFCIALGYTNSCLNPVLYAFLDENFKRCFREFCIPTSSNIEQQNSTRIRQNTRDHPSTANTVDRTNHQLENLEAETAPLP
Sequence of 5-hydroxytryptamine receptor 5A (Homo sapiens) (P47898 whole entry): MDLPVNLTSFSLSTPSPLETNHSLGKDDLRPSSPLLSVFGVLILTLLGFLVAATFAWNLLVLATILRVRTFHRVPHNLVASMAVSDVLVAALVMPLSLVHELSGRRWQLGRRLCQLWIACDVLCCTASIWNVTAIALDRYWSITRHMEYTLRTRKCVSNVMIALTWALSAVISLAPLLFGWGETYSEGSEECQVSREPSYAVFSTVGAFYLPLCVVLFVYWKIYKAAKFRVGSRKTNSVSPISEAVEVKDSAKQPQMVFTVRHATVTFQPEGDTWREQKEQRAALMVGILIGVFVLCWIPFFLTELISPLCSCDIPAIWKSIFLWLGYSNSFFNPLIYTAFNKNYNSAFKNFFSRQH
Sequence of Beta-1 adrenergic receptor (Homo sapiens) (P08588 whole entry, looked up): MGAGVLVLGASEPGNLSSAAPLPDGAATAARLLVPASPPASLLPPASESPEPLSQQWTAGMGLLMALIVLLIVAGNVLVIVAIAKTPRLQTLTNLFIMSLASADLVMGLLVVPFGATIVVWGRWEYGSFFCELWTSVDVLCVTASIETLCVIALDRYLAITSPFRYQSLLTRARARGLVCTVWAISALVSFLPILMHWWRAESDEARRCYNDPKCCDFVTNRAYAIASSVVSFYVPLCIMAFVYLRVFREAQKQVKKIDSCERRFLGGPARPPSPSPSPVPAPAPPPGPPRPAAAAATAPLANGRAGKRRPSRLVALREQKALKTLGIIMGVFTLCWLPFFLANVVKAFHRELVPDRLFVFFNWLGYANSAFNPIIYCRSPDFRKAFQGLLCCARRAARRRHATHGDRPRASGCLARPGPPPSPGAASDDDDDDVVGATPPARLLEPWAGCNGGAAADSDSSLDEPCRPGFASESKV

Fc1cccc(CCN[C@H]2C3C4CC5C6C4CC3C6C52)c1 (stereo not given in full)
not listed: [9]
< 50%: all other assays above

Fc1cccc(CN[C@H]2C3C4CC5C6C4CC3C6C52)c1 (stereo not given in full)
< 50%: all assays above

CN(CCc1cccc(F)c1)[C@H]1C2C3CC4C5C3CC2C5C41 (stereo not given in full)
< 50%: all assays above

CN(Cc1cccc(F)c1)[C@H]1C2C3CC4C5C3CC2C5C41 (stereo not given in full)
< 50%: all assays above
